target: T1, Glucagon receptor (Homo sapiens, UniProt P47871); test: Percentage inhibition of human glucagon receptor function expressed in CHO cells at a concentration of 20 uM.; assay type: cell-based
T1 sequence (P47871 whole entry): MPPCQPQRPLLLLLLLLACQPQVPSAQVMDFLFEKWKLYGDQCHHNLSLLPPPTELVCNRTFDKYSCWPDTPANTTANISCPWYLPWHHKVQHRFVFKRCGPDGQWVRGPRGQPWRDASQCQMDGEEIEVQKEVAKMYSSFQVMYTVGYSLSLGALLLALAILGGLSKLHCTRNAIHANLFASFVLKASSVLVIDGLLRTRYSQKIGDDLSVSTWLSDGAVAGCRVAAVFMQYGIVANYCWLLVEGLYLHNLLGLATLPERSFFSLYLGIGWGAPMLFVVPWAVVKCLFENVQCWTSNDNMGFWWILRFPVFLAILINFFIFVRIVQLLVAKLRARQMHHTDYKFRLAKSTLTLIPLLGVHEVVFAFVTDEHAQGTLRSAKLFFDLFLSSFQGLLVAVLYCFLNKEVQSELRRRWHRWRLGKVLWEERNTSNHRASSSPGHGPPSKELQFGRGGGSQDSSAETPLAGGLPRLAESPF

Compound | inhibition [%]
CCCCCc1c(C(C)C)nc(C(C)C)c(CO)c1-c1cccc(C)c1 | 46
CCCCCc1c(C(C)C)nc(C(C)C)c(CO)c1-c1ccccc1OC | 27
CCC/C=C/c1c(C(C)C)nc(C(C)C)c(CO)c1-c1ccc(Cl)c(Cl)c1 | 39
CCCCCc1c(C(C)C)nc(C(C)C)c(CO)c1-c1ccc(C(F)(F)F)cc1 | 35
CCCCCc1c(C(C)C)nc(C(C)C)c(CO)c1-c1ccc2c(c1)CCCC2 | 37
CCCCCc1c(C(C)C)nc(C(C)C)c(CO)c1-c1ccc(Cl)cc1Cl | 8
CCCCCc1c(C(C)C)nc(C(C)C)c(CO)c1-c1ccccc1CO | 44
CCCCCc1c(C(C)C)nc(C(C)C)c(CO)c1-c1ccc2ccccc2c1 | 16
CCCCCc1c(C(C)C)nc(C(C)C)c(CO)c1-c1ccc(OC)cc1 | 37
CCCCCc1c(C(C)C)nc(C(C)C)c(CO)c1-c1ccc(CC)cc1 | 42
CCCCCc1c(C(C)C)nc(C(C)C)c(C)c1-c1ccccc1O | 11
CCC/C=C/c1c(C(C)C)nc(C(C)C)c(CO)c1-c1ccc(S(C)(=O)=O)cc1 | 14
CCCCCc1c(C(C)C)nc(C(C)C)c(CO)c1-c1cccc2ccccc12 | 6
CCCCCc1c(C(C)C)nc(C(C)C)c(CO)c1-c1ccc(C(C)C)cc1 | 34
CCCCCc1c(C(C)C)nc(C(C)C)c(CO)c1-c1ccc(-c2ccccc2)cc1 | 2
CCCCCc1c(C(C)C)nc(C(C)C)c(CO)c1-c1ccccc1C | 33
CCCCCc1c(C(C)C)nc(C(C)C)c(CO)c1-c1ccc(O)cc1 | 24
CCCCCc1c(C(C)C)nc(C(C)C)c(CO)c1-c1cccc(C(F)(F)F)c1 | 25
CCCCCc1c(C(C)C)nc(C(C)C)c(CO)c1-c1cccc(Cl)c1 | 49
CCCCCc1c(C(C)C)nc(C(C)C)c(CO)c1-c1ccccc1NC(C)=O | 13

target: T1, Glucagon receptor; test: Tested for its ability to inhibit cAMP production in human glucagon receptor expressed CHO cells; assay type: functional, cell-based

Compound | IC50 [µM]
CCCCCc1c(C(C)C)nc(C(C)C)c(CO)c1-c1ccc(F)cc1 | 0.4
CCCCCc1c(C(C)C)nc(C(C)C)c(CO)c1-c1ccc(F)cc1O | 0.12

target: T1, Glucagon receptor; test: biochemical
Description: Tested for its inhibitory activity against human glucagon receptor (hGR) expressed in CHO cells

Compound | IC50 [µM]
CCCCCc1c(C(C)C)nc(C(C)C)c(CO)c1-c1ccc(F)c(CO)c1 | 19
CCCCCc1c(C(C)C)nc(C(C)C)c(CO)c1-c1ccccc1N | 2.3
CC(C)=Cc1c(C(C)C)nc(C(C)C)c(O)c1-c1ccc(F)cc1 | 7
CCCCCc1c(C(C)C)nc(C(C)C)c(CO)c1-c1cccc(OC)c1 | 48
CCCCCc1c(C(C)C)nc(C(C)C)c(CO)c1-c1ccc(F)cc1O | 0.19
CCCCCc1c(C(C)C)nc(C(C)C)c(CO)c1-c1ccc(F)cc1F | 11

— ChEMBL document CHEMBL1135302, “Optimization of the 4-aryl group of 4-aryl-pyridine glucagon antagonists: development of an efficient, alternative synthesis” (Bioorg Med Chem Lett, 2002)
